Calls of active or inactive are those of the source. The calls are words filed in the database; no cut-off is given here.
Tests used:
[1] = target: T1, Histone deacetylase (Homo sapiens) (UniProt Q13547+O15379+Q9UBN7+Q92769+Q9UQL6+Q8WUI4+Q9BY41+Q96DB2+P56524+Q9UKV0+Q969S8); assay: Inhibition of histone deacetylase in Homo sapiens (human) HepG2 nuclear extract assessed as low level acetylation of H2A at 100 uM after 8 hr by TAU PAGE analysis; type: protein assay
HepG2 [2] = assay: Antiproliferative activity against Homo sapiens (human) HepG2 cells assessed as elongated shaped cells; type: functional, cell-based
HepG2 [3] = assay: Antiproliferative activity against Homo sapiens (human) HepG2 cells at 100 uM after 48 hr by MTT assay; type: functional; conditions: HepG2, 48 h
[4] = target: T1, Histone deacetylase (Homo sapiens); assay: Inhibition of histone deacetylase in Homo sapiens (human) HepG2 cells at 100 uM after 8 hr by colorimetry; type: cell-based
HepG2 [5] = assay: Antiproliferative activity against Homo sapiens (human) HepG2 cells at 100 uM after 120 hr by MTT assay; type: functional; conditions: HepG2, 120 h
[6] = target: T1, Histone deacetylase (Homo sapiens); assay: Inhibition of histone deacetylase in Homo sapiens (human) HepG2 cells assessed as hyperacetylation of H3 at 100 uM after 8 hr by Western blot analysis; type: cell-based
[7] = Cytotoxicity against Homo sapiens (human) WRL68 cells at 100 uM after 120 hr by MTT assay; type: cell-based; conditions: read-out: INH
[8] = target: T1, Histone deacetylase (Homo sapiens); assay: Inhibition of histone deacetylase in Homo sapiens (human) HepG2 nuclear extract assessed as hyperacetylation of H4 at 100 uM after 8 hr by TAU PAGE analysis; type: protein assay
[9] = Cytotoxicity against Homo sapiens (human) WRL68 cells at 100 uM after 48 hr by MTT assay; type: cell-based; conditions: read-out: INH
[10] = target: T1, Histone deacetylase (Homo sapiens); assay: Inhibition of histone deacetylase in Homo sapiens (human) HepG2 nuclear extract assessed as low level acetylation of H2B at 100 uM after 8 hr by TAU PAGE analysis; type: protein assay
[11] = target: T1, Histone deacetylase (Homo sapiens); assay: Inhibition of histone deacetylase in Homo sapiens (human) HepG2 nuclear extract assessed as hyperacetylation of H3 at 100 uM after 8 hr by TAU PAGE analysis; type: protein assay
[12] = target: T1, Histone deacetylase (Homo sapiens); conditions: HepG2, 1 mM
Description: Inhibition of histone deacetylase in Homo sapiens (human) HepG2 cells at 1 mM after 8 hr by colorimetry

SMILES | Activity [1] | Activity (HepG2 [2]) | inhibition at 100 µM (HepG2 [3]) | inhibition [4] | inhibition at 100 µM (HepG2 [5]) | Activity [6] | cytotoxicity at 120 h, 100 µM [7] | Activity [8] | cytotoxicity at 48 h, 100 µM [9] | Activity [10] | Activity [11] | inhibition [12]
O=C1CSC(=O)N1CCCCCCNS(=O)(=O)c1ccccc1 | Active | Active | 57.3% | 56.9% | 69.5% | Active | 55.6% | Active | 37.5% | Active | Active | 
CCCC(=O)[O-].[Na+] |  |  |  |  |  |  |  |  |  |  |  | 52.3%
O=C(NCCCCCCN1C(=O)CSC1=O)c1ccccc1 | Active | Active | 42.3% | 42.1% | 83% | Active | 92.3% | Active | 34.7% | Active | Active | 
